# Experimental data reported in paper PMC12090182, “Repurposing of the RIPK1-Selective Benzo[1,4]oxazepin-4-one Scaffold for the Development of a Type III LIMK1/2 Inhibitor” (ACS Chemical Biology, 2025).
# Read-outs that look alike come from different tables or passages of the source.
# Test system: U2OS cells
# Assay type: cell-based
# Details: U2OS
# Summary of the method: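 HEK293T and U2OS cells (DMEM) and MRC-9 fibroblasts (EMEM) exposed to compounds at 1 and 10 μM. Live-cell confocal imaging of cell shape and fluorescence before and at 12, 24 and 48 h. Normalized to 0.1% DMSO; biological duplicates with SEM.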
# [1] = 1 µM, 0 h after treatment, biological replicate 1
# [2] = 1 µM, 0 h after treatment, biological replicate 2
# [3] = 1 µM, 12 h after treatment, biological replicate 1
# [4] = 1 µM, 12 h after treatment, biological replicate 2
# [5] = 1 µM, 24 h after treatment, biological replicate 1
# [6] = 1 µM, 24 h after treatment, biological replicate 2
# [7] = 1 µM, 48 h after treatment, biological replicate 1
# [8] = 1 µM, 48 h after treatment, biological replicate 2
# [9] = 10 µM, 0 h after treatment, biological replicate 1
# [10] = 10 µM, 0 h after treatment, biological replicate 2
# [11] = 10 µM, 12 h after treatment, biological replicate 1
# [12] = 10 µM, 12 h after treatment, biological replicate 2
# [13] = 10 µM, 24 h after treatment, biological replicate 1
# [14] = 10 µM, 24 h after treatment, biological replicate 2
# [15] = 10 µM, 48 h after treatment, biological replicate 1
# [16] = 10 µM, 48 h after treatment, biological replicate 2
smiles,measurement,setting,value
CC(C)C(=O)Nc1ncc(C(=O)NCCN(Cc2ccccc2)C(=O)c2ccc(S(=O)(=O)Nc3ccccc3)cc2)s1 [TH470],Cell count normalized to cells treated with DMSO control,[1],0.966
same,Cell count per well,[1],201
same,Population Fragmented Nuclei (%),[1],47.72%
same,Population Healthy Nuclei (%),[1],44.16%
same,Population Pyknosed Nuclei (%),[1],8.12%
same,Population apoptotic cell (%),[1],87.50%
same,Population cell that influence microtubule strucutre (%),[1],6.90%
same,Population with increased mitochondrial mass (%),[1],2.30%
same,Population with membrane disruption (%),[1],9.20%
same,Cell count normalized to cells treated with DMSO control,[2],1.038
same,Cell count per well,[2],89
same,Population Fragmented Nuclei (%),[2],15.73%
same,Population Healthy Nuclei (%),[2],79.78%
same,Population Pyknosed Nuclei (%),[2],4.49%
same,Population apoptotic cell (%),[2],50.00%
same,Population cell that influence microtubule strucutre (%),[2],5.63%
same,Population with increased mitochondrial mass (%),[2],4.23%
same,Population with membrane disruption (%),[2],4.23%
same,Cell count normalized to cells treated with DMSO control,[3],0.8658
same,Cell count per well,[3],229
same,Population Fragmented Nuclei (%),[3],36.24%
same,Population Healthy Nuclei (%),[3],55.96%
same,Population Pyknosed Nuclei (%),[3],7.80%
same,Population apoptotic cell (%),[3],76.47%
same,Population cell that influence microtubule strucutre (%),[3],1.64%
same,Population with increased mitochondrial mass (%),[3],4.10%
same,Population with membrane disruption (%),[3],4.10%
same,Cell count normalized to cells treated with DMSO control,[4],1.074
same,Cell count per well,[4],127
same,Population Fragmented Nuclei (%),[4],17.89%
same,Population Healthy Nuclei (%),[4],73.98%
same,Population Pyknosed Nuclei (%),[4],8.13%
same,Population apoptotic cell (%),[4],100.00%
same,Population cell that influence microtubule strucutre (%),[4],4.40%
same,Population with increased mitochondrial mass (%),[4],4.40%
same,Population with membrane disruption (%),[4],12.09%
same,Cell count normalized to cells treated with DMSO control,[5],0.8405
same,Cell count per well,[5],262
same,Population Fragmented Nuclei (%),[5],31.54%
same,Population Healthy Nuclei (%),[5],59.62%
same,Population Pyknosed Nuclei (%),[5],8.85%
same,Population apoptotic cell (%),[5],73.91%
same,Population cell that influence microtubule strucutre (%),[5],2.58%
same,Population with increased mitochondrial mass (%),[5],4.52%
same,Population with membrane disruption (%),[5],5.16%
same,Cell count normalized to cells treated with DMSO control,[6],1.041
same,Cell count per well,[6],148
same,Population Fragmented Nuclei (%),[6],19.59%
same,Population Healthy Nuclei (%),[6],67.57%
same,Population Pyknosed Nuclei (%),[6],12.84%
same,Population apoptotic cell (%),[6],94.74%
same,Population cell that influence microtubule strucutre (%),[6],3.00%
same,Population with increased mitochondrial mass (%),[6],4.00%
same,Population with membrane disruption (%),[6],4.00%
same,Cell count normalized to cells treated with DMSO control,[7],0.7931
same,Cell count per well,[7],353
same,Population Fragmented Nuclei (%),[7],26.16%
same,Population Healthy Nuclei (%),[7],66.57%
same,Population Pyknosed Nuclei (%),[7],7.27%
same,Population apoptotic cell (%),[7],80.00%
same,Population cell that influence microtubule strucutre (%),[7],3.06%
same,Population with increased mitochondrial mass (%),[7],2.62%
same,Population with membrane disruption (%),[7],3.93%
same,Cell count normalized to cells treated with DMSO control,[8],1.07
same,Cell count per well,[8],221
same,Population Fragmented Nuclei (%),[8],17.59%
same,Population Healthy Nuclei (%),[8],71.30%
same,Population Pyknosed Nuclei (%),[8],11.11%
same,Population apoptotic cell (%),[8],87.50%
same,Population cell that influence microtubule strucutre (%),[8],5.84%
same,Population with increased mitochondrial mass (%),[8],3.90%
same,Population with membrane disruption (%),[8],5.84%
same,Cell count normalized to cells treated with DMSO control,[9],1.105
same,Cell count per well,[9],230
same,Population Fragmented Nuclei (%),[9],38.01%
same,Population Healthy Nuclei (%),[9],52.49%
same,Population Pyknosed Nuclei (%),[9],9.50%
same,Population apoptotic cell (%),[9],85.71%
same,Population cell that influence microtubule strucutre (%),[9],0.86%
same,Population with increased mitochondrial mass (%),[9],0.86%
same,Population with membrane disruption (%),[9],3.45%
same,Cell count normalized to cells treated with DMSO control,[10],0.875
same,Cell count per well,[10],75
same,Population Fragmented Nuclei (%),[10],10.67%
same,Population Healthy Nuclei (%),[10],82.67%
same,Population Pyknosed Nuclei (%),[10],6.67%
same,Population apoptotic cell (%),[10],80.00%
same,Population cell that influence microtubule strucutre (%),[10],3.23%
same,Population with increased mitochondrial mass (%),[10],3.23%
same,Population with membrane disruption (%),[10],6.45%
same,Cell count normalized to cells treated with DMSO control,[11],0.9149
same,Cell count per well,[11],242
same,Population Fragmented Nuclei (%),[11],26.79%
same,Population Healthy Nuclei (%),[11],56.70%
same,Population Pyknosed Nuclei (%),[11],16.52%
same,Population apoptotic cell (%),[11],64.86%
same,Population cell that influence microtubule strucutre (%),[11],62.20%
same,Population with increased mitochondrial mass (%),[11],41.73%
same,Population with membrane disruption (%),[11],55.91%
same,Cell count normalized to cells treated with DMSO control,[12],0.8031
same,Cell count per well,[12],95
same,Population Fragmented Nuclei (%),[12],10.75%
same,Population Healthy Nuclei (%),[12],74.19%
same,Population Pyknosed Nuclei (%),[12],15.05%
same,Population apoptotic cell (%),[12],85.71%
same,Population cell that influence microtubule strucutre (%),[12],39.13%
same,Population with increased mitochondrial mass (%),[12],52.17%
same,Population with membrane disruption (%),[12],28.99%
same,Cell count normalized to cells treated with DMSO control,[13],0.8277
same,Cell count per well,[13],258
same,Population Fragmented Nuclei (%),[13],25.41%
same,Population Healthy Nuclei (%),[13],59.43%
same,Population Pyknosed Nuclei (%),[13],15.16%
same,Population apoptotic cell (%),[13],75.68%
same,Population cell that influence microtubule strucutre (%),[13],25.52%
same,Population with increased mitochondrial mass (%),[13],33.10%
same,Population with membrane disruption (%),[13],26.90%
same,Cell count normalized to cells treated with DMSO control,[14],0.7946
same,Cell count per well,[14],113
same,Population Fragmented Nuclei (%),[14],10.81%
same,Population Healthy Nuclei (%),[14],73.87%
same,Population Pyknosed Nuclei (%),[14],15.32%
same,Population apoptotic cell (%),[14],70.59%
same,Population cell that influence microtubule strucutre (%),[14],19.51%
same,Population with increased mitochondrial mass (%),[14],31.71%
same,Population with membrane disruption (%),[14],9.76%
same,Cell count normalized to cells treated with DMSO control,[15],0.7572
same,Cell count per well,[15],337
same,Population Fragmented Nuclei (%),[15],22.70%
same,Population Healthy Nuclei (%),[15],63.19%
same,Population Pyknosed Nuclei (%),[15],14.11%
same,Population apoptotic cell (%),[15],89.13%
same,Population cell that influence microtubule strucutre (%),[15],11.65%
same,Population with increased mitochondrial mass (%),[15],14.56%
same,Population with membrane disruption (%),[15],12.62%
same,Cell count normalized to cells treated with DMSO control,[16],0.76
same,Cell count per well,[16],157
same,Population Fragmented Nuclei (%),[16],10.00%
same,Population Healthy Nuclei (%),[16],69.33%
same,Population Pyknosed Nuclei (%),[16],20.67%
same,Population apoptotic cell (%),[16],87.10%
same,Population cell that influence microtubule strucutre (%),[16],14.42%
same,Population with increased mitochondrial mass (%),[16],14.42%
same,Population with membrane disruption (%),[16],11.54%
